In PubChem BioAssay AID743486 (Broad Institute, 2014):
The source made the active and inactive calls. How the calls were made is not given here.

tested on: Mycobacterium tuberculosis starved, CFU imaging; assay: M. tuberculosis CFU reduction, CFU imaging, dry powder, dose response (AID 743486)

Row | SMILES | AC90
1 | Cn1c(NC(=O)c2ccccc2)nc2c3ncccc3ccc21 | > 64 µM (inactive)
2 | Cn1c(NC(=O)c2ccccc2)nc2c3cnccc3ccc21 | < 32 µM
3 | Cn1c(NC(=O)c2ccccc2)nc2c3ccncc3ccc21 | < 64 µM
4 | Cn1c(NC(=O)c2ccccc2)nc2c3nccnc3ccc21 | > 64 µM (inactive)
